Source: patent EP0460883B1, “Process for beta-hydroxy-alpha-amino acids” (THE UNIVERSITY OF NOTRE DAME DU LAC, priority 1990, dated 1991)

Columns and labels:
[1] = target: T1, serine hydroxymethyltransferase (SHMT) (Oryctolagus cuniculus, UniProt P07511); assay: Conversion of aldehyde substrates and glycine to β-hydroxy-α-amino acids by SHMT (HPLC assay); assay type: biochemical, rabbit; design: key: + = conversion; - = no detectable conversion
T1 construct: Three such sources are rabbit liver (LaVerne Schirch and Merle Mason, J. Biol. Chem., Vol. 237, No. 8, August 1962); from tissue; host or cells: rabbit liver
T1 sequence (P07511 2-484 limits assumed): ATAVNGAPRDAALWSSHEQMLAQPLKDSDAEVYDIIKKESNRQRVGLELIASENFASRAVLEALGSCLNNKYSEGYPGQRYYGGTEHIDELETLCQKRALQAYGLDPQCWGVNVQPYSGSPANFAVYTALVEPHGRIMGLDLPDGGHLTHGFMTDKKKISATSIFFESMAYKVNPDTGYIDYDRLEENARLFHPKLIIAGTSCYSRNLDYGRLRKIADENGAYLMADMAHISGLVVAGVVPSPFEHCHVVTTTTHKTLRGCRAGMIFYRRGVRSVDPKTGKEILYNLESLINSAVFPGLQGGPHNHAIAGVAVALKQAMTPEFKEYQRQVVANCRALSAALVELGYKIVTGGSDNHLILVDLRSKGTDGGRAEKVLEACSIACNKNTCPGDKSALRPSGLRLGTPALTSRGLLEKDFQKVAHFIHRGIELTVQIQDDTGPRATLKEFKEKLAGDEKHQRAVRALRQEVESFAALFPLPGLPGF
Procedure: (§1) The following Table 1 lists representative aldehyde substrates which were converted in the process to β-hydroxy-α-amino acids with SHMT from two sources. The conversion of the substrates in Table 1 was carried out by incubating the substrate and glycine with SHMT under the conditions of the process. A number of the process conditions used were common to all of the substrates and are detailed in the following paragraphs. Wherever exceptions occurred they are noted in each instance.
(§2) The incubations were carried out in 10 mM phosphate buffer, pH 7.3 containing pyridoxal 5′-phosphate at a concentration of about 80 µM. All solutions were prepared from distilled, deionized water for best results. The conversions were carried out at about 37°C in sealed, 500 µL polypropylene micro-centrifuge vials in a constant-temperature water bath. The vials were protected from light except when removed from the water bath for removal of aliquots for analysis. With all conversions an enzyme blank incubation was carried out in parallel with the SHMT incubation. The total volume of the incubation mixture was typically about 200 µL. The conditions in the blank were identical to those of the incubation mixture except for the absence of the enzyme.
(§3) The process can be monitored for production of the β-hydroxy-α-amino acid by removing aliquots from the incubation mixture from time to time and assaying the samples by HPLC separation and fluorescence detection of o-phthalaldehyde derived isoindoles of all primary amine compounds present in the mixture. The assay procedure is described by Jones, B.N.; Gilligan, J. P., J. Chrom. 1983, 266, 471; Jones, B. N. et al., J. Liq. Chrom. 1981, 4,565, and Simons, Jr., S. S. et al., J. Am Chem. Soc. 1976, 98, 7098. HPLC analysis of both the incubation mixture and the enzyme blank allowed determination of which peak(s) on the chromatograms could be assigned to enzyme products.

[2] = tested on: serine hydroxymethyltransferase (SHMT); assay: as above; assay type: biochemical, corn; design: key: + = conversion; - = no detectable conversion
Procedure: as §1, §2, §3
All of the following procedures were carried out at 4°C. Washed 5-7 day old corn seedlings were homogenized in a Waring blender in 100 mM potassium monohydrogen phosphate containing 1 mM disodium ethylenediaminetetraacetate (EDTA), 1 mM dithiothreitol, and 125 µM of pyridoxal 5'-phosphate. The mix contained approximately 960 g of seedlings per liter. The homogenate was filtered through cheese cloth and the filtrate was subjected to ammonium sulfate precipitation. The protein which precipitated with 35-50% saturation in ammonium sulfate upon centrifuging at 13,800 x g for 40 min. was dissolved in 10 mM phosphate buffer, pH 7.8, containing […] pyridoxal 5'-phosphate and 1 mM EDTA. The solution was dialyzed and concentrated to 5-15 mg of protein/ml in the same buffer without EDTA present. Assay for aldolase activity of the protein consisted of a coupled system between the aldolase-catalyzed retroaldol of L-allo-threonine with the NADH (reduced form of nicotinamide adenine dinucleotide) dependent reduction of the resulting acetaldehyde by yeast alcohol dehydrogenase (ADH). Specific activity averaged 78 milliunits/mg of protein. One unit of enzyme activity is defined as that amount of enzyme required to cause a change of one optical density unit (at 340 nm) per minute at room temperature in the presence of ADH, 120 mM L-allo-threonine, 125 µM PLP, and 120 µM NADH in 100 mM phosphate buffer, pH 7.5.

[3] = incubation with glycine, 10 mM phosphate buffer pH 7.3, pyridoxal 5′-phosphate about 80 µM, about 37°C

| Structure (SMILES) | Aldehyde (RCHO) Substrates for SHMT, Enzyme Rabbit Liver [1, 3] | Aldehyde (RCHO) Substrates for SHMT, Enzyme Corn Seedlings [2, 3] | Aldehyde (RCHO) Substrates for SHMT, Enzyme Rabbit Liver ([1]; as the other substrates, but VO3- (metavanadate) was present) | Aldehyde (RCHO) Substrates for SHMT, Enzyme Corn Seedlings ([2]; as the other substrates, but tetrahydrofolate was present) |
| --- | --- | --- | --- | --- |
| O=CCCc1ccco1 | + | - |  |  |
| CC(=O)C=O [-C(O)CH3, pyruvaldehyde] |  |  | + | + |
| COC(=O)CCCC=O [-CH2CH2CH2CO2CH3, Glutaric semialdehyde methyl ester] | + | + |  |  |
| O=CCCCOC=O [-CH2CH2CH2OCHO, O-formyl 4-hydroxybutanal] | + |  |  |  |
| CCCC=O [-CH2CH2CH3, n-butanal] | + |  |  |  |
| CC(C)OC(=O)CCC=O [-CH2CH2CO2(CH3)2, succinic semialdehyde isopropyl ester] | + |  |  |  |
| COC(=O)CCC=O [-CH2CH2CO2CH3, succinic semialdehyde methyl ester] | + | + |  |  |
| CCC=O [-CH2CH3, propionaldehyde] |  | + |  |  |
| O=CCOCc1ccccc1 [-CH2OCH2C6H5] |  | + |  |  |
| CC=O [-CH3, acetaldehyde] | + | + |  |  |
| O=CC(=O)O [-CO2H] | - | - |  |  |
| O=Cc1ccco1 [Example 2-furyl, 2-furfural] | + | + |  |  |
| O=Cc1ccccc1 [Example C6H5, benzaldehyde] | + | - |  |  |
